# Patent US9926354B2, “Amyloid precursor protein (APP) based Ã#-secretase inhibitor peptides, and methods of use” (UNIVERSITY OF SOUTH FLORIDA, priority 2014, dated 2018)
# Columns and labels:
# [1] = test system: CHO cells over-expressing human wild-type APP (CHO/APPwt); assay: Aβ and sAPPα production in cultured media of CHO/APPwt cells by ELISA (24 hours); assay type: cell-based, Chinese hamster; details: 20 μg/mL
# Method: Cell Culture—Chinese hamster ovary (CHO) cells engineered to express wild-type human APP (CHO/APPwt cells) or Swedish mutant human APP (CHO/APPswe cells) were kindly provided by Dr. Stefanie Hahn and Dr. Sascha Weggen (University of Heinrich Heine, Dusseldorf, Germany). As described previously (Obregon et al., 2012), these cells were cultured in Dulbecco's modified Eagle's medium (DMEM) with 10% fetal bovine serum (FBS), 1 mM sodium pyruvate, and 100 units/mL of penicillin and streptomycin.
# To confirm the binding of APPsweBBP with BACE1, CHO/APPwt cells were plated in 8-well chambers (5×10^5/well), incubated with TAT-APPsweBBP-biotin or APPsweBBP-biotin at 20 μM for 30 minutes, fixed with 4% paraformaldehyde for 20 minutes, washed and permeabilized with 0.5% Triton X-100. Following application of blocking buffer, these cells were stained with mouse anti-BACE1 and rabbit anti-biotin antibodies overnight at 4° C. for immunocytochemistry analysis. […] The cultured media were collected for Aβ analysis by enzyme-linked immunosorbent assay (ELISA) and sAPPα analysis by ELISA and Western blot (WB). Cell lysates were also prepared for analysis of APP amyloidogenic processing by WB.
# ELISA—Mouse brains were homogenized in ice-cold lysis buffer for 30 seconds using a Minilys tissue homogenizer (Bertin Technologies, Montigny-le-Bretonneux, France) set at high speed, allowed to stand for 15 minutes at 4° C., and centrifuged at 15,000 rpm for 30 minutes. Soluble Aβ1-40/42 species and sAPPα were directly detected in cultured cell media or brain homogenates using the Aβ1-40/42 (Invitrogen) and sAPPα ELISA kits (IBL-America, Minneapolis, Minn., USA).
# To further examine the ability of the Swedish mutant APP BACE1 binding peptide/Tat fusion peptides to decrease Aβ production, CHO cells overexpressing either human wild-type APP (CHO/APPwt cells) or Swedish mutant APP (hereinafter referred to as “CHO/APPswe cells”) are treated with a variety of APP-based BACE1 inhibitor peptides, as shown in Table 1 and Table 2. Aβ production is determined using ELISA.
# [2] = test system: 5XFAD mice; assay: β-amyloid deposits in 5XFAD mouse brains (4G8 immunohistochemistry, image analysis); assay type: in vivo; details: 8 weeks i.p. treatment
# Text: Percentage of 4G8 immunoreactive areas in regions of interest (RSC, EC and H regions) was quantified by image analysis for each treatment group (B). Data are represented as mean±SD (n=10, 5 female/5 male).
# 5XFAD Mice—Transgenic AD mice [5XFAD; B6SJL-Tg(APPSwF1Lon,PSEN1*M146L*L286V) 6799Vas/Mmjax] at 2.5 months of age were obtained from the Jackson Laboratory (Bar Harbor, Me., USA) and housed and maintained in the Animal Facility of College of Medicine at University of South Florida. The mice at 3.5 months of age were treated with TAT-APPsweBBP, TAT peptide (100 nM/kg in 100 μl PBS) or PBS (100 μl) intraperitioneally (i.p.) daily for eight consecutive weeks. The mice were subjected to behavioral testing after 8 week-treatment and euthanized for immunohistochemical, ELISA and WB analysis after completing behavioral tests. All experiments involving mice were in compliance with the U.S. Department of Health and Human Services Guide for the Care and Use of Laboratory Animals and in accordance with the guidelines of the USF Institutional Animal Care and Use Committee.
# Immunohistochemistry—Fixed cell cultures and brain sections were stained with indicated antibodies and then treated with donkey anti-mouse IgG conjugated with Alexa Fluor 488 (1:200) and goat anti-rabbit IgG conjugated with Alexa Fluor 594 (1:200; Invitrogen, Carlsbad, Calif., USA). […]
sequence,measurement,setting,value
"YGRKKRRQRRR [TAT, reference compound]",Secreted Aβ40 (ng/mg; mean ± SD),[1],11.32 ± 0.45 ng/mg
same,Secreted Aβ42 (ng/mg; mean ± SD),[1],1.07 ± 0.057 ng/mg
same,Secreted sAPPα (ng/mg; mean ± SD),[1],4766.34 ± 198.34 ng/mg
same,"percentage of 4G8 immunoreactive areas (β-amyloid plaques) in RSC, EC and H regions",[2],no significant difference
